Measurements from US9695155B2, “Herbicidal substituted pyrimidinyloxy benzene compounds” (E. I. DU PONT DE NEMOURS AND COMPANY, priority 2013, dated 2017).

Tests used:
rice = test: Test B flooded paddy test; format: in vivo, Oryza sativa; settings: Flood, 250 g ai/ha; 0 to 100 scale where 0 is no effect and 100 is complete control
Procedure, shortened: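 Compound added straight to paddy water, with pots kept flooded 3 cm above soil, on plants grown to the 2-leaf stage. Visual scoring 0-100 (100 = complete control) against untreated controls after 13 to 15 greenhouse days.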

johnsongrass = test: Test C preemergence; format: in vivo, Sorghum halepense; settings: for Johnsongrass plant response rating: preemergence; for Plant response rating, Johnsongrass: Preemergence, 31 g ai/ha, scale 0 to 100, 0 no effect, 100 complete control
Procedure, shortened: (§1)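 Visual ratings on a 0–100 scale (100 = complete control) were made versus untreated controls after 13–15 greenhouse days. Chemicals in a surfactant-containing non-phytotoxic solvent were applied either preemergence to seeds in loam–sand soil or postemergence to 1- to 4-leaf plants 2–18 cm tall.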

lambsquarters = test: Test C preemergence; format: in vivo, Chenopodium album; settings: for Lambsquarters plant response rating: preemergence; for Plant response rating, Lambsquarters: Preemergence, 31 g ai/ha, scale 0 to 100, 0 no effect, 100 complete control
Procedure, shortened: as §1

wheat, winter = test: Test C postemergence; format: in vivo, Triticum aestivum; settings: for Plant response rating (0 to 100), Wheat: 125 g ai/ha, postemergence; for Plant response rating, Wheat: Postemergence, scale 0 to 100 (0 no effect, 100 complete control)
Procedure, shortened: as §1

wild oat = test: Test C postemergence; format: in vivo, Avena fatua; settings: for Plant response rating (0 to 100), Oat, Wild: 125 g ai/ha, postemergence; for Plant response rating, Oat, Wild: Postemergence, scale 0 to 100 (0 no effect, 100 complete control)
Procedure, shortened: as §1

large (Lg) crabgrass = test: Test C preemergence; format: in vivo, Digitaria sanguinalis; settings: for Crabgrass, Large plant response rating: preemergence; for Plant response rating, Crabgrass, Large: Preemergence, 31 g ai/ha, scale 0 to 100, 0 no effect, 100 complete control
Procedure, shortened: as §1

ragweed = test: Test C postemergence; format: in vivo, Ambrosia elatior; settings: for Plant response rating (0 to 100), Ragweed: 125 g ai/ha, postemergence; for Plant response rating, Ragweed: Postemergence, scale 0 to 100 (0 no effect, 100 complete control)
Procedure, shortened: as §1

kochia = test: Test C postemergence; format: in vivo, Kochia scoparia; settings: for Kochia plant response rating: 16 g ai/ha, visual rating; for Kochia plant response rating / Plant response rating (0 to 100), Kochia: postemergence; for Kochia plant response rating / Plant response rating, Kochia: scale 0 to 100 (0 no effect, 100 complete control); for Plant response rating (0 to 100), Kochia: 125 g ai/ha; for Plant response rating, Kochia: Postemergence
Procedure, shortened: as §1

[1] = 16 g ai/ha, scale 0 to 100 (0 no effect, 100 complete control)
[2] = 62 g ai/ha, scale 0 (no effect) to 100 (complete control)
[3] = 125 g ai/ha, scale 0 (no effect) to 100 (complete control)

Row | Compound | Plant response rating, Rice (rice) | Johnsongrass plant response rating (johnsongrass; [1]) | Johnsongrass plant response rating (johnsongrass; [2]) | Johnsongrass plant response rating (johnsongrass; [3]) | Plant response rating, Johnsongrass (johnsongrass) | Lambsquarters plant response rating (lambsquarters; [1]) | Lambsquarters plant response rating (lambsquarters; [2]) | Lambsquarters plant response rating (lambsquarters; [3]) | Plant response rating, Lambsquarters (lambsquarters) | Plant response rating (0 to 100), Wheat (wheat, winter) | Plant response rating, Wheat (wheat, winter; 31 g ai/ha, 13 to 15 days) | Plant response rating, Wheat (wheat, winter; 62 g ai/ha) | Plant response rating (0 to 100), Oat, Wild (wild oat) | Plant response rating, Oat, Wild (wild oat; 31 g ai/ha, 13 to 15 days) | Plant response rating, Oat, Wild (wild oat; 62 g ai/ha) | Crabgrass, Large plant response rating (large (Lg) crabgrass; [1]) | Crabgrass, Large plant response rating (large (Lg) crabgrass; [2]) | Crabgrass, Large plant response rating (large (Lg) crabgrass; [3]) | Plant response rating, Crabgrass, Large (large (Lg) crabgrass) | Plant response rating (0 to 100), Ragweed (ragweed) | other results
1 | FCc1cccc(Oc2ncc(Cl)cn2)c1-n1cc(Br)cn1 [Compound 83] | 0 | 0 | 50 | 85 | 0 | 100 | 100 | 100 | 100 | 5 | 0 | 0 | 5 | 0 | 10 | 65 | 100 | 100 | 85 | 70 | Plant response rating, Ragweed (ragweed; 31 g ai/ha, 13 to 15 days): 40; Plant response rating, Ragweed (ragweed; 62 g ai/ha): 60; Kochia plant response rating (kochia; 13 to 15 days): 60; Plant response rating (0 to 100), Kochia (kochia): 95; Plant response rating, Kochia (kochia; 31 g ai/ha, 13 to 15 days): 70; Plant response rating, Kochia (kochia; 62 g ai/ha): 90
2 | CCOc1cn(-c2c(Br)cccc2Oc2ncc(Cl)cn2)nn1 [Compound 84] | 0 | 0 | 40 | 85 | 20 | 75 | 100 | 100 | 85 | 0 | 0 | 0 | 15 | 0 | 5 | 45 | 100 | 100 | 98 | 80 | Plant response rating, Ragweed (ragweed; 31 g ai/ha, 13 to 15 days): 10; Plant response rating, Ragweed (ragweed; 62 g ai/ha): 40; Kochia plant response rating (kochia; 13 to 15 days): 55; Plant response rating (0 to 100), Kochia (kochia): 80; Plant response rating, Kochia (kochia; 31 g ai/ha, 13 to 15 days): 55; Plant response rating, Kochia (kochia; 62 g ai/ha): 70
